pIC50, pKi: −log10 of the molar value. Activity calls are given as the source filed them. The rule behind the calls is not given here.
Key:
[1] = target: T1, C-X-C chemokine receptor type 2 (Homo sapiens, UniProt P25025); assay: Antagonist activity at human CXCR2 expressed in HEK293 cells assessed as inhibition of CXCL8-induced beta-arrestin recruitment preincubated for 30 mins followed by addition of agonist incubated for 90 mins by beta arrestin assay; format: functional, cell-based
T1 sequence (P25025 whole entry): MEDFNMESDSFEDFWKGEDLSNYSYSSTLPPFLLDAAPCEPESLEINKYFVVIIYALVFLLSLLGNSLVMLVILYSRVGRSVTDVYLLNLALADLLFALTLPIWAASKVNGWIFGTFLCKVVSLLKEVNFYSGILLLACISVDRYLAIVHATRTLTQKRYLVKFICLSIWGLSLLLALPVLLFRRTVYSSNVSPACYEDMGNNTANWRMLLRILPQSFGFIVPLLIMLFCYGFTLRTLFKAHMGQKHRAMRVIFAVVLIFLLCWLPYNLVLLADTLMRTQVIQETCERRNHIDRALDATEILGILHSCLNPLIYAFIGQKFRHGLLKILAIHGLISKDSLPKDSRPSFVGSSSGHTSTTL

[2] = target: T1, C-X-C chemokine receptor type 2; assay: Displacement of [I-125]-interleukin-8 against human recombinant CXCR2 expressed in CHO-K1 cells incubated for 60 mins by radio ligand binding assay; format: cell-based
[3] = Tmax in ICR mouse at 3 mg/kg, iv measured upto 48 hrs; format: ADME, organism-based; details: in vivo
[4] = Tmax in ICR mouse at 30 mg/kg, po measured upto 48 hrs; format: ADME, organism-based; details: in vivo
[5] = Cmax in ICR mouse at 3 mg/kg, iv measured upto 48 hrs; format: ADME, organism-based; set-up: route intravenous, dose 3 mg/kg, time <=48; details: in vivo
[6] = Cmax in ICR mouse at 30 mg/kg, po measured upto 48 hrs; format: ADME, organism-based; set-up: route oral, dose 30 mg/kg, time <=48; details: in vivo
[7] = AUC (0 to t) in ICR mouse at 3 mg/kg, iv measured upto 48 hrs; format: ADME, organism-based; set-up: route intravenous, dose 3 mg/kg, time <=48; details: in vivo
[8] = AUC (0 to t) in ICR mouse at 30 mg/kg, po measured upto 48 hrs; format: ADME, organism-based; set-up: route oral, dose 30 mg/kg, time <=48; details: in vivo
[9] = AUC (0 to infinity) in ICR mouse at 3 mg/kg, iv measured upto 48 hrs; format: ADME, organism-based; set-up: route intravenous, dose 3 mg/kg, time <=48; details: in vivo
[10] = AUC (0 to infinity) in ICR mouse at 30 mg/kg, po measured upto 48 hrs; format: ADME, organism-based; set-up: route oral, dose 30 mg/kg, time <=48; details: ICR, in vivo
[11] = Half life in ICR mouse at 3 mg/kg, iv measured upto 48 hrs; format: ADME, organism-based; details: in vivo
[12] = Half life in ICR mouse at 30 mg/kg, po measured upto 48 hrs; format: ADME, organism-based; details: ICR, in vivo
[13] = Apparent volume of distribution in ICR mouse at 3 mg/kg, iv measured upto 48 hrs; format: ADME, organism-based; details: in vivo, read-out: Vz
[14] = Apparent volume of distribution in ICR mouse at 30 mg/kg, po measured upto 48 hrs; format: ADME, organism-based; details: in vivo
[15] = Clearance in ICR mouse at 3 mg/kg, iv measured upto 48 hrs; format: ADME, organism-based; details: in vivo
[16] = Clearance in ICR mouse at 30 mg/kg, po measured upto 48 hrs; format: ADME, organism-based; details: ICR, in vivo
[17] = Oral bioavailability in ICR mouse at 30 mg/kg measured upto 48 hrs; format: ADME, organism-based; details: in vivo
Neutrophil = assay: In vivo antagonist activity at CXCR2 in carrageenan-induced C57BL/6 mouse air pouch inflammation model assessed as reduction in neutrophil infiltration into air pouch at 30 mg/kg, po bid administered after 3 days of carrageenan treatment for 3 days; format: functional, organism-based; details: time 3.0 day
Panc02 [18] = assay: Antitumour activity against mouse Panc02 cells xenografted in mouse assessed as tumour growth inhibition at 10 mg/kg, po bid […]; format: functional; details: read-out: TGI
Panc02 [19] = assay: Antitumour activity against mouse Panc02 cells xenografted in mouse assessed as tumour growth inhibition at 3 mg/kg, po bid […]; format: functional; details: read-out: TGI
Panc02 [20] = assay: Cytotoxicity against mouse Panc02 cells assessed as reduction in cell viability measured after 72 hrs by CCK8 assay; format: cell-based; details: panc02, 72 h
PANC-1 = assay: Cytotoxicity against human PanC-1 cells assessed as reduction in cell viability measured after 72 hrs by CCK8 assay; format: cell-based; details: PANC-1, 72 h
SW1990 = assay: Cytotoxicity against human SW1990 cells assessed as reduction in cell viability measured after 72 hrs by CCK8 assay; format: cell-based; details: SW1990, 72 h
BXPC-3 = assay: Cytotoxicity against human BxPC3 cells assessed as reduction in cell viability measured after 72 hrs by CCK8 assay; format: cell-based; details: BXPC-3, 72 h
MIA PaCa-2 = assay: Cytotoxicity against human MIA PaCa-2 cells assessed as reduction in cell viability measured after 72 hrs by CCK8 assay; format: cell-based; details: MIA PaCa-2, 72 h
[21] = Cytotoxicity against human PBMC cells assessed as reduction in cell viability measured after 72 hrs by CCK8 assay; format: cell-based
Panc02 [22] = assay: Antitumour activity against mouse Panc02 cells xenografted in mouse assessed as reduction in infiltration of neutrophils into tumor tissue at 3 mg/kg, po bid measured after 15 days by flow cytometry analysis; format: functional, organism-based; details: time 15.0 day
Panc02 [23] = assay: Antitumour activity against mouse Panc02 cells xenografted in mouse assessed as reduction in infiltration of granulocytic MDSCs into tumor tissue at 3 mg/kg, po bid measured after 15 days by flow cytometry analysis; format: functional, organism-based; details: time 15.0 day
Panc02 [24] = assay: Antitumour activity against mouse Panc02 cells xenografted in mouse assessed as change in CD45 expressing immune cells infiltration into tumor tissue at 10 mg/kg, po bid measured after 15 days by flow cytometry analysis (reference value: 2.3%); format: functional; details: time 15 day
Panc02 [25] = assay: Antitumour activity against mouse Panc02 cells xenografted in mouse assessed as change in CD45 expressing immune cells infiltration into tumor tissue at 3 mg/kg, po bid measured after 15 days by flow cytometry analysis (reference value: 2.3%); format: functional; details: time 15 day
Panc02 [26] = assay: Antitumour activity against mouse Panc02 cells xenografted in mouse assessed as change in Gr1 expressing immune cells infiltration into tumor tissue at 10 mg/kg, po bid measured after 15 days by flow cytometry analysis (reference value: 27.4%); format: functional; details: time 15 day
Panc02 [27] = assay: Antitumour activity against mouse Panc02 cells xenografted in mouse assessed as change in CD45 expressing immune cells infiltration into tumor tissue at 3 mg/kg, po bid measured after 15 days by flow cytometry analysis (reference value: 27.4%); format: functional; details: time 15 day
Panc02 [28] = assay: Antitumour activity against mouse Panc02 cells xenografted in mouse assessed as change in CD11b expressing immune cells infiltration into tumor tissue using LY6G antibody at 10 mg/kg, po bid measured after 15 days by flow cytometry analysis (reference value: 29.7%); format: functional; details: time 15 day
Panc02 [29] = assay: Antitumour activity against mouse Panc02 cells xenografted in mouse assessed as change in CD11b expressing immune cells infiltration into tumor tissue using LY6G antibody at 3 mg/kg, po bid measured after 15 days by flow cytometry analysis (reference value: 29.7%); format: functional; details: time 15 day
Panc02 [30] = assay: Antitumour activity against mouse Panc02 cells xenografted in mouse assessed as change in CD11b expressing immune cells infiltration into tumor tissue using LY6C antibody at 10 mg/kg, po bid measured after 15 days by flow cytometry analysis (reference value: 20.5%); format: functional; details: time 15 day
Panc02 [31] = assay: Antitumour activity against mouse Panc02 cells xenografted in mouse assessed as change in CD11b expressing immune cells infiltration into tumor tissue using LY6C antibody at 3 mg/kg, po bid measured after 15 days by flow cytometry analysis (reference value: 20.5%); format: functional; details: time 15 day
Panc02 [32] = assay: Antitumour activity against mouse Panc02 cells xenografted in mouse assessed as reduction in infiltration of neutrophils into tumor tissue at 30 mg/kg, po bid measured after 15 days by immunohistochemical analysis; format: functional, organism-based; details: time 15.0 day
Panc02 [33] = assay: Antitumour activity against mouse Panc02 cells xenografted in mouse assessed as reduction in infiltration of granulocytic MDSCs into tumor tissue at 30 mg/kg, po bid measured after 15 days by immunohistochemical analysis; format: functional, organism-based; details: time 15.0 day
Mus musculus = assay: Effect on granulocytic MDSCs level in mouse xenografted with […] cells at 10 to 30 mg/kg, po bid measured after 15 days by immunohistochemical analysis; format: ADME, organism-based; details: in vivo, 360 h, dose 10-30 mg/kg, time 15 day
Panc02 [34] = assay: Antitumour activity against mouse Panc02 cells xenografted in mouse assessed as upregulation of infiltration of CD3+ T cell into tumor tissue treated po twice a day measured after 15 days by immunohistochemical analysis; format: functional, organism-based; details: dose 10-30 mg/kg, time 15.0 day

## O=c1c(Nc2ccccc2Br)c(Nc2ccc3c(c2O)S(=O)(=O)CCC3)c1=O
[1]
  pIC50: 6.82

## Cc1c(Cl)cccc1NC(=O)Nc1ccc2c(c1O)S(=O)(=O)CCC2
[1]
  pIC50: 5.61

## O=c1c(Nc2ccccc2Cl)c(Nc2ccc3c(c2O)S(=O)(=O)CCC3)c1=O
[1]
  pIC50: 5.98

## O=C(Nc1ccccc1Cl)Nc1ccc2c(c1O)S(=O)(=O)CCC2
[1]
  pIC50: 6.68

## O=c1c(Nc2ccc3c(c2O)S(=O)(=O)CC=C3)c(Nc2cccc(Cl)c2Cl)c1=O
[1]
  pIC50: 5.60

## O=C(Nc1ccccc1F)Nc1ccc2c(c1O)S(=O)(=O)CC=C2
[1]
  pIC50: 6.49

## O=C(Nc1ccc(Cl)cc1Cl)Nc1ccc2c(c1O)S(=O)(=O)CC=C2
[1]
  pIC50: 5.23

## O=C(Nc1ccc2c(c1O)S(=O)(=O)CC=C2)Nc1cccc(F)c1Cl
[1]
  pIC50: 4.72

## O=c1c(Nc2ccc3c(c2O)S(=O)(=O)CCC3)c(Nc2cccc(F)c2Cl)c1=O
[1]
  pIC50: 5.46

## O=C(Nc1ccc2c(c1O)S(=O)(=O)CC=C2)Nc1cccc(Cl)c1Cl
[1]
  pIC50: 6.89

## O=C(Nc1ccccc1Br)Nc1ccc2c(c1O)S(=O)(=O)CC=C2
[1]
  pIC50: 7.31

## O=C(Nc1ccccc1Cl)Nc1ccc2c(c1O)S(=O)(=O)CC=C2
[1]
  pIC50: 7.18

## O=C(Nc1ccc(Br)cc1)Nc1ccc2c(c1O)S(=O)(=O)CCC2
[1]
  pIC50: < 5.00

## O=c1c(Nc2ccc3c(c2O)S(=O)(=O)CC=C3)c(Nc2cccc(F)c2Cl)c1=O
[1]
  pIC50: 6.15

## Cc1c(F)cccc1NC(=O)Nc1ccc2c(c1O)S(=O)(=O)CC=C2
[1]
  pIC50: 7.47
[2]
  pKi: 6.36
[3]
  Tmax: 3 min
[4]
  Tmax: 3.42 h
[5]
  Cmax: 5120 ng/mL
[6]
  Cmax: 419 ng/mL
[7]
  AUC(0-t) at 48 h: 1510 ng·h/mL
[8]
  AUC(0-t) at 48 h: 3510 ng·h/mL
[9]
  AUC(0-inf): 1550 ng·h/mL
[10]
  AUC(0-inf): 3570 ng·h/mL
[11]
  half-life: 3.39 h
[12]
  half-life: 3.83 h
[13]
  Vd: 9.82 L/kg
[14]
  Vz: 47.39 L/kg
[15]
  clearance: 32.8 mL/min/kg
[16]
  CL/F: 143 mL/min/kg
[17]
  bioavailability: 23.2%
Neutrophil
  Activity: Active
Panc02 [18]
  inhibition in vivo at 10 mg/kg: 66.7%
Panc02 [19]
  inhibition in vivo at 3 mg/kg: 58.2%
Panc02 [20]
  Activity: Non-Toxic
PANC-1
  pIC50: < 5.00
SW1990
  pIC50: < 5.00
BXPC-3
  pIC50: < 5.00
MIA PaCa-2
  pIC50: < 5.00
[21]
  pIC50: < 5.00
Panc02 [22]
  Activity: Active
Panc02 [23]
  Activity: Active
Panc02 [24]
  Activity: 40.2%
Panc02 [25]
  Activity: 34.9%
Panc02 [26]
  Activity: 7.6%
Panc02 [27]
  Activity: 12.7%
Panc02 [28]
  Activity: 8.11%
Panc02 [29]
  Activity: 15.8%
Panc02 [30]
  Activity: 17.8%
Panc02 [31]
  Activity: 15%
Panc02 [32]
  Activity: Active
Panc02 [33]
  Activity: Active
Mus musculus
  Activity: Non-Toxic
Panc02 [34]
  Activity: Dose-Dependent Effect

## O=C(Nc1ccc2c(c1O)S(=O)(=O)CCC2=O)Nc1cccc(Cl)c1Cl
[1]
  pIC50: 6.40

## O=C(Nc1ccc(Cl)cc1Cl)Nc1ccc2c(c1O)S(=O)(=O)CCC2
[1]
  pIC50: < 5.00

— ChEMBL document CHEMBL5032530, “Discovery of Benzocyclic Sulfone Derivatives as Potent CXCR2 Antagonists for Cancer Immunotherapy” (J Med Chem, 2021)
